Results from patent US20230303540A1 (Merck Sharp & Dohme LLC, priority 2020, published 2023).

What follows are molecules tested against GST-tagged truncated human mutant G2019S LRRK2 (Homo sapiens, UniProt Q5S007, G2019S) (assay: LRRK2 G2019S Km ATP LanthaScreen assay). Details: 134 μM ATP (Km ATP), LRRKtide substrate, mean IC50 values; read-out: LRRK2 pIC50 (converted).
Format: biochemical
Method in brief: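 Compound preincubated 15 min at room temperature with enzyme in pH 8.5 Tris buffer (10 mM MgCl2). Then a 90 min reaction at ambient temperature with 134 μM (Km) ATP and fluorescein-LRRKtide. EDTA stop, Tb anti-phospho antibody TR-FRET; […]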
`CCn1ncc(Nc2ncc3ccc(N4C(=O)OCC4C4CC4)cc3n2)c1C` (single isomer, unassigned) [Ex-7.16, (R) or (S) 4-cyclopropyl-3-{2-[(1-ethyl-5-methyl-1H-pyrazol-4-yl)amino]quinazolin-7-yl}-1,3-oxazolidin-2-one] gave an IC50 of 0.625 nM. Work on `CC1(N2CCN(c3cc4nc(Nc5cnn(CC6CC6(F)F)c5)ncc4cc3Cl)CC2)COC1` (centres unmarked) [Ex-4.70, 6-chloro-N-{1-[(2,2-difluorocyclopropyl)methyl]-1H-pyrazol-4-yl}-7-[4-(3-methyloxetan-3-yl)piperazin-1-yl]quinazolin-2-amine] yielded an IC50 of 4.93 nM. Molecule `CC(=O)N1CCN(c2cc3nc(Nc4cnn(C5CC5)c4Cl)ncc3cc2Cl)CC1` [Ex-1.30, 1-(4-{6-chloro-2-[(5-chloro-1-cyclopropyl-1H-pyrazol-4-yl)amino]quinazolin-7-yl}piperazin-1-yl)ethan-1-one] has an IC50 of 7.16 nM. `Cc1nsc(Nc2ncc3ccc(N4C(=O)C5CCC4C5)cc3n2)c1C` (centres unmarked) [Ex-8.15, 2-{2-[(3,4-dimethyl-1,2-thiazol-5-yl)amino]quinazolin-7-yl}-2-azabicyclo[2.2.1]heptan-3-one] showed an IC50 of 2.59 nM. For `CC1(O)CCN(c2cc3nc(Nc4cnn(C(C)(C)C#N)c4Cl)ncc3cc2Cl)CC1` [Ex-6.6, 2-(5-chloro-4-{[6-chloro-7-(4-hydroxy-4-methylpiperidin-1-yl)quinazolin-2-yl]amino}-1H-pyrazol-1-yl)-2-methylpropanenitrile], the IC50 was 4.02 nM. In the case of `Cn1cc(Nc2ncc3cc(Cl)c(N4CCN(C5(C)COC5)CC4)cc3n2)c(C(F)(F)F)n1` [Ex-4.21, 6-chloro-7-[4-(3-methyloxetan-3-yl)piperazin-1-yl]-N-[1-methyl-3-(trifluoromethyl)-1H-pyrazol-4-yl]quinazolin-2-amine], the IC50 is reported as 36.8 nM. Molecule `Cc1c(Nc2ncc3cc(Cl)c(N4C[C@H]5CC[C@@H](C4)[C@@]5(C)O)cc3n2)cnn1C1CC1` [Ex-3.27, (8-syn)-3-{6-chloro-2-[(1-cyclopropyl-5-methyl-1H-pyrazol-4-yl)amino]quinazolin-7-yl}-8-methyl-3-azabicyclo[3.2.1] octan-8-ol] has an IC50 of 0.486 nM. `Cc1c(Nc2ncc3cc(F)c(NCC4CC4)nc3n2)cnn1C1CCOCC1` [Ex-15.5, N-7-(cyclopropylmethyl)-6-fluoro-N-2-[5-methyl-1-(oxan-4-yl)-1H-pyrazol-4-yl]pyrido[2,3-d]pyrimidine-2,7-diamine] gave an IC50 of 32.6 nM. `C[C@H]1COC(=O)N1c1ccc2cnc(Nc3cnn(C4CCN(C5COC5)CC4F)c3Cl)nc2c1` (stereo in doubt) [Ex-7.3, (4S)-3-[2-({5-chloro-1-[(3S,4S)-3-fluoro-1-(oxetan-3-yl)piperidin-4-yl]-1H-pyrazol-4-yl}amino)quinazolin-7-yl]-4-methyl-1,3-oxazolidin-2-one] was tested, and the IC50 was 0.976 nM. Molecule `CC1(N2CCN(c3cc4nc(Nc5cnn(C6(C(F)(F)F)CC6)c5Cl)ncc4cc3Cl)CC2)COC1` [Ex-3.24, 6-chloro-N-{5-chloro-1-[1-(trifluoromethyl)cyclopropyl]-1H-pyrazol-4-yl}-7-[4-(3-methyloxetan-3-yl)piperazin-1-yl]quinazolin-2-amine] has an IC50 of 3.68 nM. Molecule `CC(C)(O)CC(O)Cn1ncc(Nc2ncc3cc(Cl)c(N4CCC(C)(O)CC4)cc3n2)c1Cl` (centres unmarked) [Ex-6.5, 1-(5-chloro-4-{[6-chloro-7-(4-hydroxy-4-methylpiperidin-1-yl)quinazolin-2-yl]amino}-1H-pyrazol-1-yl)-4-methylpentane-2,4-diol] has an IC50 of 27.3 nM. Work on `C[C@H]1CN(c2cc3nc(Nc4cnn(C5(C)CC5)c4Cl)ncc3cc2Cl)CCN1C1COC1` [Ex-4.41, 6-chloro-N-[5-chloro-1-(1-methylcyclopropyl)-1H-pyrazol-4-yl]-7-[(3S)-3-methyl-4-(oxetan-3-yl)piperazin-1-yl]quinazolin-2-amine] yielded an IC50 of 1.91 nM. `CN1CC2CC1CN2c1cc2nc(Nc3cnn(C4(C)CC4)c3Cl)ncc2cc1Cl` (centres unmarked) [Ex-4.35, 6-chloro-N-[5-chloro-1-(1-methylcyclopropyl)-1H-pyrazol-4-yl]-7-(5-methyl-2,5-diazabicyclo[2.2.1]heptan-2-yl)quinazolin-2-amine] was tested, and the IC50 was 4.91 nM. `CO[C@H]1C[C@H](n2ncc(Nc3ncc4cc(Cl)c(N5CCC(C)(O)CC5)cc4n3)c2C)C1` [Ex-6.13, 1-(6-chloro-2-{[1-(trans-3-methoxycyclobutyl)-5-methyl-1H-pyrazol-4-yl]amino}quinazolin-7-yl)-4-methylpiperidin-4-ol] gave an IC50 of 0.976 nM. Molecule `F[C@H]1CN(C2COC2)CC[C@@H]1n1ncc(Nc2ncc3cc(Cl)c(N4CCC5(CC4)COC5)cc3n2)c1Cl` [Ex-1.4, 6-chloro-N-{5-chloro-1-[(3S,4S)-3-fluoro-1-(oxetan-3-yl)piperidin-4-yl]-1H-pyrazol-4-yl}-7-(2-oxa-7-azaspiro[3.5]nonan-7-yl)quinazolin-2-amine] has an IC50 of 1.54 nM. `COCC12CC(n3cc(Nc4ncc5cc(Cl)c(N6CCC7(CCOC7)CC6)cc5n4)cn3)(C1)C2` [Ex-3.33, 6-chloro-N-{1-[3-(methoxymethyl)bicyclo[1.1.1]pentan-1-yl]-1H-pyrazol-4-yl}-7-(2-oxa-8-azaspiro [4.5]decan-8-yl)quinazolin-2-amine] showed an IC50 of 1.15 nM. With `Cc1c(Nc2ncc3ccc(N(C)C4COC4)cc3n2)cnn1C1CCOCC1` [Ex-1.47, N-7-methyl-N-2-[5-methyl-1-(oxan-4-yl)-1H-pyrazol-4-yl]-N-7-(oxetan-3-yl)quinazoline-2,7-diamine] the IC50 was 38.8 nM. `CCn1ncc(Nc2ncc3cc(Cl)c(N4CCN(C5(C)COC5)CC4)cc3n2)c1C` [Ex-4.13, 6-chloro-N-(1-ethyl-5-methyl-1H-pyrazol-4-yl)-7-[4-(3-methyloxetan-3-yl)piperazin-1-yl]quinazolin-2-amine] was tested, and the IC50 was 6.83 nM. `CC(C)(C)n1ncc(Nc2ncc3cc(Cl)c(N4CCC(N5CC(F)(F)C5)CC4)cc3n2)c1Cl` [Ex-4.33, N-(1-tert-butyl-5-chloro-1H-pyrazol-4-yl)-6-chloro-7-[4-(3,3-difluoroazetidin-1-yl)piperidin-1-yl]quinazolin-2-amine] gave an IC50 of 4.75 nM. `Clc1cc2cnc(Nc3cnn(C45CC(C4)C5)c3Cl)nc2cc1N1CCNCC1` [Ex-12.10, N-(1-(bicyclo[1.1.1]pentan-1-yl)-5-chloro-1H-pyrazol-4-yl)-6-chloro-7-(piperazin-1-yl)quinazolin-2-amine] showed an IC50 of 2.13 nM. `CC1CCC12CN(c1cc3nc(Nc4cnn(C5(C)CC5)c4Cl)ncc3cc1Cl)C2` (centres unmarked) [Ex-4.24, 6-chloro-N-[5-chloro-1-(1-methylcyclopropyl)-1H-pyrazol-4-yl]-7-(5-methyl-2-azaspiro[3.3]heptan-2-yl)quinazolin-2-amine] showed an IC50 of 218 nM. `CC(C)(O)Cn1ncc(Nc2ncc3cc(Cl)c(N4CCN(C5(C)COC5)CC4)cc3n2)c1Cl` [Ex-4.51, 1-[5-chloro-4-({6-chloro-7-[4-(3-methyloxetan-3-yl)piperazin-1-yl]quinazolin-2-yl}amino)-1H-pyrazol-1-yl]-2-methylpropan-2-ol] gave an IC50 of 2.76 nM. With `O[C@@H]1COC[C@@H]1N1CCN(c2nc3nc(Nc4cnn(C5CC5)c4Cl)ncc3cc2Cl)CC1` (single isomer, unassigned) [Ex-16.2, (3S,4S) or (3R, 4R)-4-(4-(6-Chloro-2-((5-chloro-1-cyclopropyl-1H-pyrazol-4-yl)amino)pyrido[2,3-d]pyrimidin-7-yl)piperazin-1-yl)tetrahydrofuran-3-ol] the IC50 was 126 nM.
